From patent US11324832B2, “Tripartite modulators of endosomal G protein-coupled receptors” (Endosome Therapeutics, Inc., priority 2015, dated 2022)
Where a SMILES comes first, the peptide text is derived from it. [ ]: non-standard residue; d: D form. The star is where a group is joined. X1 = CC(C)CCC[C@@H](C)[C@H]1CC[C@H]2[C@@H]3CC[C@H]4C[C@@H](O*)CC[C@]4(C)[C@H]3CC[C@]12C; NMeL = CN[C@@H](CC(C)C)C(=O)O; PEG4 = NCCOCCOCCOCCOCCC(=O)O; PEG3 = NCCOCCOCCOCCC(=O)O; Ava = NCCCCC(=O)O

Experiments:
NK1R [1] = target: T1, NK1R (Rattus norvegicus, UniProt P14600); assay: Calcium mobilization assay, agonist mode, HEK293 cells expressing NK1R; assay type: cell-based; set-up: Full length and truncated 6312 rat HA-NK1R have been described; expressed in transfected cells; host or cells: HEK293
T1 sequence (P14600 whole entry, the tested form may be a part): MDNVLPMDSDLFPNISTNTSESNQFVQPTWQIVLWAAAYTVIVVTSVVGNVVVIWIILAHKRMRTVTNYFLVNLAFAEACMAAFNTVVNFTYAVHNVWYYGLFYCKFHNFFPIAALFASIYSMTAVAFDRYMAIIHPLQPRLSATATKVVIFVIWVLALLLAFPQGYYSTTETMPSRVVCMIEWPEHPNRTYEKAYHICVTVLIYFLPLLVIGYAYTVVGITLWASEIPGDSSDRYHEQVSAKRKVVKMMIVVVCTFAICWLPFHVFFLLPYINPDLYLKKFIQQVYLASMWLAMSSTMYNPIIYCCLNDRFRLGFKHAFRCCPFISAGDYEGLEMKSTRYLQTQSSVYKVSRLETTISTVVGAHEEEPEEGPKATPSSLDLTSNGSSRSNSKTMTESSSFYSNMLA
From the text: GR73632 was conjugated to cholestanol (Compound 3) or ethyl ester (GR73632-ethyl ester) via a flexible PEG linker. The effect of these compounds in HEK293 cells expressing NK1R was then studied.

NK1R [2] = target: T1, NK1R; assay: BRET between NK1R-RLuc8 and βarr1/2-YFP in HEK293 cells; assay type: cell-based; set-up: Full length and truncated 6312 rat HA-NK1R have been described; expressed in transfected cells; host or cells: HEK293 (transient); conditions: agonist alone
Description: Bioluminescence Resonance Energy Transfer (BRET) was employed to quantitatively assess the proximity of the NK1R to key regulators of GPCR trafficking (βarrs), and resident proteins of plasma (KRas) and early endosomal (Rab5a) membranes in HEK293 cells (FIG. 1A).
HEK293 cells were transfected with the following cDNAs: 1 μg NK1R-RLuc8 or 1 μg CLR-RLuc8+1 μg Myc-RAMP1+4 μg KRas-Venus, 4 μg Rab5a-Venus, 4 μg βarr1-YFP, or 4 μg βarr2-YFP; or 1 μg NK1R+0.5 μg Gαq-RLuc8+1 μg Gβ1+4 μg Gγ2-Venus; or 1 μg NK1R+0.5 μg Gαq-RLuc8+1 μg Gβ1+1 μg Gγ2+4 μg Rab5a-Venus. After 48 h, cells were equilibrated in Hank's balanced salt solution (HBSS) at 37° C., and incubated with the RLuc substrate coelenterazine h (5 μM, 15 min).

NK1R [3] = target: T1, NK1R; assay: FRET biosensors of compartmentalized signaling (ERK, PKC, cAMP) in NK1R-expressing HEK293 cells; assay type: cell-based; set-up: Full length and truncated 6312 rat HA-NK1R have been described; expressed in transfected cells; host or cells: HEK293 (transient); conditions: agonist alone, imaged over 20 min
Description: To study the link between NK1R trafficking and signaling, the NK1R and Förster Resonance Energy Transfer (FRET) biosensors targeted to detect activated ERK in the cytosol (CytoEKAR) or nucleus (NucEKAR, FIG. 2A), activated PKC at the plasma membrane (pmCKAR) or in the cytosol (CytoCKAR, FIG. 2C), and cAMP at the plasma membrane (pmEpac2) or in the cytosol (CytoEpac2, FIG. 2E) were expressed in HEK293 cells.
HEK293 cells were transfected with 55 ng/well rat NK1R with N-terminal HA. 11 epitope tag (HA-NK1R) or CLR plus RAMP1 and 40 ng/well FRET biosensors. FRET was assessed 48 h after transfection, following serum restriction (0.5% FBS overnight). For experiments using clathrin or dynamin siRNA, cells were transfected with 55 ng/well rat HA-NK1R, 40 ng/well FRET biosensor and 25 nM/well scrambled, clathrin or dynamin ON-TARGETplus SMARTpool siRNA (GE Dharmacon). FRET was assessed 72 h after transfection, following serum restriction (0.5% FBS overnight). Cells were equilibrated in HBSS at 37° C. and FRET was analyzed using a GE Healthcare INCell 2000 Analyzer. For GFP/RFP emission ratio analysis, cells were sequentially excited using a FITC filter (490/20) with emission measured using dsRed (605/52) and FITC (525/36) filters, and a polychroic optimized for the FITC/dsRed filter pair (Quad4). For CFP/YFP emission ratio analysis, cells were sequentially excited using a CFP filter (430/24) with emission measured using YFP (535/30) and CFP (470/24) filters, and a polychroic optimized for the CFP/YFP filter pair (Quad3). Cells were imaged every 1 min, allowing image capture of 14 wells per minute. Baseline emission ratio images were captured for 4 min. […] Cells were then stimulated with the positive control (200 nM phorbol 12,13-dibutyrate for ERK; 200 nM phorbol 12,13-dibutyrate with phosphatase inhibitor cocktail for PKC; 10 μM forskolin, 100 μM 3-isobutyl-1-methylxanthine, 100 nM PGE1 for cAMP) for 10 min to generate a maximal increase, and positive emission ratio images were captured for 4 min. Data were analyzed as described and expressed as emission ratios relative to baseline for each cell (F/F0). Cells with >10% change in F/F0 after stimulation with positive controls were selected for analysis.

[4] = target: T2, endothelin converting enzyme 1 (Homo sapiens, UniProt P42892); conditions: cited from earlier work
T2 sequence (P42892 1-770): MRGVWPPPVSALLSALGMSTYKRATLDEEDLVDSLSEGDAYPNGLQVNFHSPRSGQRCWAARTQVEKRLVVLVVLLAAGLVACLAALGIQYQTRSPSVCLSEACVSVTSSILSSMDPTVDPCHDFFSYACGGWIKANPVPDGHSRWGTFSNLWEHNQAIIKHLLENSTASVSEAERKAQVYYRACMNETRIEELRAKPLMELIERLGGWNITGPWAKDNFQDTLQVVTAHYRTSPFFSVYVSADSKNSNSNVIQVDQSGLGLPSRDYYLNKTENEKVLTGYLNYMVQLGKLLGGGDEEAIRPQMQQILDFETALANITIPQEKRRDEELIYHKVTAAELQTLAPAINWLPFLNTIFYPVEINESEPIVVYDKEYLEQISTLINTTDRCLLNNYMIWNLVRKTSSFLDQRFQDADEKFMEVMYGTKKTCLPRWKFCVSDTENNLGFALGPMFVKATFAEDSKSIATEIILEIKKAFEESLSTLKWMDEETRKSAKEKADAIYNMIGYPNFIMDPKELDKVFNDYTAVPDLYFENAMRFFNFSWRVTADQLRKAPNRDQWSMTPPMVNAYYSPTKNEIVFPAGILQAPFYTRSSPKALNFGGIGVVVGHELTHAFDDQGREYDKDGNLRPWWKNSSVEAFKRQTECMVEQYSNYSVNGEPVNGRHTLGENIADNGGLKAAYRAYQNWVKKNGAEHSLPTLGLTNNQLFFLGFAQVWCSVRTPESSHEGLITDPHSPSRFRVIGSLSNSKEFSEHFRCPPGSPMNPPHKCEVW

Row | EC50 (NK1R [1]; HEK293 cells expressing NK1R, given as logEC50 (negative)) [nM] | SMILES | decrease in potency compared to the free agonist (NK1R [1]; calcium mobilization) [fold] | recruitment of βarrs (BRET NK1R-RLuc8 / βarr1-YFP, βarr2-YFP) (NK1R [2]) | cytosolic ERK activation (FRET CytoEKAR) (NK1R [3]) | nuclear ERK activation (FRET NucEKAR) (NK1R [3]) | susceptibility to cleavage by endothelin converting enzyme 1 [4]
1 | – | CSCC[C@H](NC(=O)[C@H](CC(C)C)N(C)C(=O)[C@@H]1CCCN1C(=O)[C@H](Cc1ccccc1)NC(=O)[C@H](Cc1ccccc1)NC(=O)CCCCNC(=O)CCOCCOCCOCCOCCNC(=O)CCOCCOCCOCCNC(=O)CCOCCOCCOCCOCCNC(=O)[C@H](CC(=O)O[C@H]1CC[C@@]2(C)[C@@H](CC[C@@H]3[C@@H]2CC[C@]2(C)[C@@H]([C@H](C)CCCC(C)C)CC[C@@H]32)C1)NC(C)=O)C(N)=O [Compound 3] (Ac-D(X1)[PEG4][PEG3][PEG4][Ava]FFP[NMeL]M-NH2) | ~100 | does not induce recruitment of βarrs | no cytosolic ERK | stimulates sustained nuclear ERK phosphorylation | –
2 | 0.933 | CSCC[C@H](NC(=O)[C@H](CC(C)C)N(C)C(=O)[C@@H]1CCCN1C(=O)[C@H](Cc1ccccc1)NC(=O)[C@H](Cc1ccccc1)NC(=O)CCCCN)C(N)=O [GR73632, Ava-Phe-Phe-Pro-N-MeLeu-Met-NH2] (H-[Ava]FFP[NMeL]M-NH2) | – | – | stimulated sustained cytosolic and nuclear ERK phosphorylation | stimulated sustained cytosolic and nuclear ERK phosphorylation | not susceptible to cleavage
